PMC10729476, “Functional characterization of four opsins and two G alpha subtypes co-expressed in the molluscan rhabdomeric photoreceptor” (BMC Biology, 2023)

Legend:
Limax xenopsin = biological target: T1, Limax xenopsin (Ambigolimax valentianus, UniProt A0A455SJK2); assay: UV-VIS absorption spectroscopy of reconstituted purified pigment; type: binding; details: chromophore added to expressing cells; covalent (retinylidene Schiff base to conserved Lys, general for opsins); 1% dodecyl maltoside extraction; 4 °C
T1 construct: wild-type xenopsin in pMT vector, C-terminal rho 1D4 tag (ETSQVAPA; tag stated, 1D4 purification), HEK293S cells, extracted in dodecyl maltoside
T1 sequence (A0A455SJK2 1-421): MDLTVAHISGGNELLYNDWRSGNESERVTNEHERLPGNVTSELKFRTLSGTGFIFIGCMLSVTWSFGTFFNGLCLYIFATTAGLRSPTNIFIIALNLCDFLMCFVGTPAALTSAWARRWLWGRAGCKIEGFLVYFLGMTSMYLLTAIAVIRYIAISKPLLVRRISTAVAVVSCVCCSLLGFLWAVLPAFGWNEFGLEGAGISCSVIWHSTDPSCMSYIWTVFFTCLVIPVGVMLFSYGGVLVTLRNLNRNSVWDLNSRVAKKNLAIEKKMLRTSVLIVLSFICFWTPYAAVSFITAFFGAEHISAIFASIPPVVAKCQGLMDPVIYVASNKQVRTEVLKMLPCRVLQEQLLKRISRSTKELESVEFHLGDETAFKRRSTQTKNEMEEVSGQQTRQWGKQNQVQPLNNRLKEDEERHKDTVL

Limax Opn5A = biological target: T2, Limax Opn5A (Ambigolimax valentianus, UniProt A0A455SGG5); assay: as above; type: binding; details: chromophore added to expressing cells; covalent (retinylidene Schiff base to conserved Lys, general for opsins); 1% dodecyl maltoside extraction; 4 °C; low expression, impurities, spectrum fitted with
T2 construct: wild-type Opn5A in pMT vector, C-terminal rho 1D4 tag (ETSQVAPA; tag stated, 1D4 purification), HEK293S cells, extracted in dodecyl maltoside
T2 sequence (A0A455SGG5 1-425): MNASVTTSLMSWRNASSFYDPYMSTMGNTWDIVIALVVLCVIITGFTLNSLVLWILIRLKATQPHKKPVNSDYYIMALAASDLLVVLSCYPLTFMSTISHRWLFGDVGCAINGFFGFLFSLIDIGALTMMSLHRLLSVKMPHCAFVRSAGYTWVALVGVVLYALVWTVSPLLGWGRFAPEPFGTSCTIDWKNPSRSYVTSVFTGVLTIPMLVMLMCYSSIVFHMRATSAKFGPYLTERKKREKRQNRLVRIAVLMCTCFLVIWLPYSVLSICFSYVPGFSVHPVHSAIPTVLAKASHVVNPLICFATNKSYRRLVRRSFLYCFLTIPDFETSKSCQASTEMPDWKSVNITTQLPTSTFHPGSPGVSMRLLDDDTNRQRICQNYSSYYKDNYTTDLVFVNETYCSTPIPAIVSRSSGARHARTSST

CC1=C(/C=C/C(C)=C/C=C\C(C)=C\C=O)C(C)(C)CCC1 [11-cis retinal]
UV-VIS absorption spectroscopy of reconstituted purified pigment (Limax xenopsin): After the addition of the 11-cis retinal, opsin-based pigments were extracted | UV-VIS absorption spectroscopy of reconstituted purified pigment (Limax Opn5A): After the addition of the 11-cis retinal, opsin-based pigments were extracted
